Laboratory results: patent publication US10568834B2, “Delivery systems for propofol” (Yissum Research Development Company of the Hebrew …, priority 2015, dated 2020)

Columns and labels:
[1] = Microemulsion formation/appearance with propofol-like species or another surfactant; format: physicochemical; details: B9A loaded with 1 wt % of the specie, FIGS. 5A-5D
Procedure: The relationship between the surfactant and the propofol with respect to binding in the microemulsion-composition was assessed by loading B9A with 1 wt % of species similar in their structure to propofol.

[2] = Self-diffusion NMR (SD-NMR); format: physicochemical; details: for Diffusion coefficient of EtOH / Diffusion coefficient of PEG400 / Diffusion coefficient of PG / Diffusion coefficient of Solutol / Diffusion coefficient of the Loaded specie: B9A loaded with 1 wt % of the specie
Procedure: In order to determine the structure of the oil droplets (or micelles) of the microemulsions, self-diffusion NMR analysis was carried out. SD-NMR is able to locate each component within the microemulsion via measurements of its diffusion coefficient.
NMR measurements were performed with a Bruker AVII 500 spectrometer equipped with GREAT 1/10 gradients, a 5 mm BBO and a 5 mm BBI probe, both with a z-gradient coil and with a maximum gradient strength of 0.509 and 0.544 T m^−1, respectively. Diffusion was measured using an asymmetric bipolar longitudinal eddy-current delay (bpLED) experiment, or and asymmetric bipolar stimulated echo (known as one-shot) experiment with convection compensation and an asymmetry factor of 20%, ramping the strongest gradient from 2% to 95% of maximum strength in 32 steps. The spectrum was processed with the Bruker TOPSPIN software. NMR spectra were recorded at 25±0.2° C. The components were identified by their chemical shift in 1H NMR.

[3] = B6A microemulsion, Loaded (1 wt % propofol)
[4] = B9A microemulsion, Loaded (1 wt % propofol)
[5] = Formulation with Tween 60, Loaded
[6] = Formulation with Tween 60, Unloaded
[7] = Formulation with Tween 80, Loaded
[8] = Formulation with Tween 80, Unloaded

## Cc1cc(C(C)(C)C)c(O)c(C(C)(C)C)c1 [BHT]
[1]
  Appearance of the system loaded with the specie: not completely transparent

## CC(O)CO (stereo not shown) [Propylene glycol, propylene glycol]
[2]; [3]
  Diffusion coefficient of the component: 5.22 × 10^−10 m^2/sec
[2]; B6A microemulsion, Unloaded
  Diffusion coefficient of the component: 6.68 × 10^−10 m^2/sec
[2]; [4]
  Diffusion coefficient of the component: 8.45 × 10^−10 m^2/sec
[2]; B9A microemulsion, Unloaded
  Diffusion coefficient of the component: 5.96 × 10^−10 m^2/sec
[2]; [5]
  Diffusion coefficient of the component: 3.24 × 10^−10 m^2/sec
[2]; [6]
  Diffusion coefficient of the component: 4.96 × 10^−10 m^2/sec
[2]; [7]
  Diffusion coefficient of the component: 4.82 × 10^−10 m^2/sec
[2]; [8]
  Diffusion coefficient of the component: 5.43 × 10^−10 m^2/sec

## COc1ccc(O)c(C(C)(C)C)c1 [BHA]
[1]
  Appearance of the system loaded with the specie: not completely transparent

## polysorbate 80 [Tween 80]
[2]; [7]
  Diffusion coefficient of the component: 2.08 × 10^−11 m^2/sec
[2]; [8]
  Diffusion coefficient of the component: 1.73 × 10^−11 m^2/sec

## CCO [Ethanol, ethanol]
[2]; [3]
  Diffusion coefficient of the component: 6.91 × 10^−10 m^2/sec
[2]; B6A microemulsion, Unloaded
  Diffusion coefficient of the component: 8.83 × 10^−10 m^2/sec
[2]; [4]
  Diffusion coefficient of the component: 9.82 × 10^−10 m^2/sec
[2]; B9A microemulsion, Unloaded
  Diffusion coefficient of the component: 7.65 × 10^−10 m^2/sec

## CC(C)(C)c1cc(O)ccc1O [TBHQ]
[1]
  Appearance of the system loaded with the specie: classic milky emulsion

## CC(C)c1ccc(O)c(C(C)C)c1 [drawing 3]
[2]
  Diffusion coefficient of EtOH: 96.6 ×10^−11 m^2/sec
  Diffusion coefficient of PEG400: 26.3 ×10^−11 m^2/sec
  Diffusion coefficient of PG: 73.6 ×10^−11 m^2/sec
  Diffusion coefficient of Solutol: 1.63 ×10^−11 m^2/sec
  Diffusion coefficient of the Loaded specie: 1.75 ×10^−11 m^2/sec

## CC(C)c1cccc(C(C)C)c1N
[2]
  Diffusion coefficient of EtOH: 94.6 ×10^−11 m^2/sec
  Diffusion coefficient of PEG400: 26.2 ×10^−11 m^2/sec
  Diffusion coefficient of PG: 44.8 ×10^−11 m^2/sec
  Diffusion coefficient of Solutol: 1.76 ×10^−11 m^2/sec
  Diffusion coefficient of the Loaded specie: 2.15 ×10^−11 m^2/sec

## Cc1cc(C(C)(C)C)c(O)c(C(C)(C)C)c1 [drawing 5]
[2]
  Diffusion coefficient of EtOH: 98.2 ×10^−11 m^2/sec
  Diffusion coefficient of PEG400: 24.3 ×10^−11 m^2/sec
  Diffusion coefficient of PG: 79.1 ×10^−11 m^2/sec
  Diffusion coefficient of Solutol: 1.75 ×10^−11 m^2/sec
  Diffusion coefficient of the Loaded specie: 1.58 ×10^−11 m^2/sec

## polyethylene glycol 15-hydroxystearate [Solutol]
[2]; [3]
  Diffusion coefficient of the component: 1.62 × 10^−11 m^2/sec
[2]; B6A microemulsion, Unloaded
  Diffusion coefficient of the component: 1.45 × 10^−11 m^2/sec
[2]; [4]
  Diffusion coefficient of the component: 1.50 × 10^−11 m^2/sec
[2]; B9A microemulsion, Unloaded
  Diffusion coefficient of the component: 1.94 × 10^−11 m^2/sec

## CC(C)c1ccc(O)c(C(C)C)c1 [2,4-isomer]
[1]
  Appearance of the system loaded with the specie: not completely transparent

## O [Water, water]
[2]; [3]
  Diffusion coefficient of the component: 1.37 × 10^−9 m^2/sec
[2]; B6A microemulsion, Unloaded
  Diffusion coefficient of the component: 1.76 × 10^−9 m^2/sec
[2]; [4]
  Diffusion coefficient of the component: 1.62 × 10^−9 m^2/sec
[2]; B9A microemulsion, Unloaded
  Diffusion coefficient of the component: 1.52 × 10^−9 m^2/sec
[2]; [5]
  Diffusion coefficient of the component: 1.12 × 10^−9 m^2/sec
[2]; [6]
  Diffusion coefficient of the component: 1.86 × 10^−9 m^2/sec
[2]; [7]
  Diffusion coefficient of the component: 1.24 × 10^−9 m^2/sec
[2]; [8]
  Diffusion coefficient of the component: 1.91 × 10^−9 m^2/sec

## COc1ccc(O)c(C(C)(C)C)c1 [drawing 4]
[2]
  Diffusion coefficient of EtOH: 91.2 ×10^−11 m^2/sec
  Diffusion coefficient of PEG400: 24.5 ×10^−11 m^2/sec
  Diffusion coefficient of PG: 78.3 ×10^−11 m^2/sec
  Diffusion coefficient of Solutol: 1.75 ×10^−11 m^2/sec
  Diffusion coefficient of the Loaded specie: 1.78 ×10^−11 m^2/sec

## CC(C)c1cccc(C(C)C)c1O [Propofol, 2,6-diisopropyl phenol]
[2]; [3]
  Diffusion coefficient of the component: 1.02 × 10^−11 m^2/sec
[2]
  Diffusion coefficient of EtOH: 98.2 ×10^−11 m^2/sec
  Diffusion coefficient of PEG400: 26.3 ×10^−11 m^2/sec
  Diffusion coefficient of PG: 84.5 ×10^−11 m^2/sec
  Diffusion coefficient of Solutol: 1.50 ×10^−11 m^2/sec
  Diffusion coefficient of the Loaded specie: 1.54 ×10^−11 m^2/sec
[2]; [4]
  Diffusion coefficient of the component: 1.54 × 10^−11 m^2/sec
[2]; [5]
  Diffusion coefficient of the component: 1.04 × 10^−11 m^2/sec
[2]; [7]
  Diffusion coefficient of the component: 1.73 × 10^−11 m^2/sec

## polysorbate 60 [Tween 60]
[2]; [5]
  Diffusion coefficient of the component: 1.63 × 10^−11 m^2/sec
[2]; [6]
  Diffusion coefficient of the component: 0.92 × 10^−11 m^2/sec
